Where two headings read alike, the source gives them in different places.
How the values were obtained:
[1] = molecular target: T1, MEK6 (Homo sapiens, UniProt P52564); assay: Additional selectivity assay, MEK6 (FIG. 9); assay type: binding
T1 sequence (P52564 1-334): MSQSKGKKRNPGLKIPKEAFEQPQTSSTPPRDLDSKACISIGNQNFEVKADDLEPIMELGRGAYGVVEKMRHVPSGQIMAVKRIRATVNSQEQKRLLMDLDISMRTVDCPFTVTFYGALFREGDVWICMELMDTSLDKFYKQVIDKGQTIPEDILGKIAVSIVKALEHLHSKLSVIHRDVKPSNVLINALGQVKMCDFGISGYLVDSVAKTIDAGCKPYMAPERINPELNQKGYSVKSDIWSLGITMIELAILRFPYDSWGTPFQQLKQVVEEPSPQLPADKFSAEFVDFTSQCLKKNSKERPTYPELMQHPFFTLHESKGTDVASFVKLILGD

[2] = PAMPA permeability; assay type: in vitro ADME; details: FIG. 12
[3] = molecular target: T2, MEK5 (Homo sapiens, UniProt Q13163); assay: Additional selectivity assay, MEK5 (FIG. 9); assay type: binding
T2 sequence (Q13163 1-448): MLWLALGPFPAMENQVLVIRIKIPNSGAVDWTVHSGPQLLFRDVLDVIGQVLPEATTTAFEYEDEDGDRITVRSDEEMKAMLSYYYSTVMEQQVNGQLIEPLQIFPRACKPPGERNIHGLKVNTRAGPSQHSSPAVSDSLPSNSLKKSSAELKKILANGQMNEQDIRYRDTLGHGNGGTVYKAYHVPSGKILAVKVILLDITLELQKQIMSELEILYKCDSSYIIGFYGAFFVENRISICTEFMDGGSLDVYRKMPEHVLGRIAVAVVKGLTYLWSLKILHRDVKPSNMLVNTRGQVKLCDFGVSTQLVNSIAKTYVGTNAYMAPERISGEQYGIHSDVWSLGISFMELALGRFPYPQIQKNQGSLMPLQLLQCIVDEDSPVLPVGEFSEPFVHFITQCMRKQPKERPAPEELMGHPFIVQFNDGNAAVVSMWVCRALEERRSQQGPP

[4] = molecular target: T3, recombinant active full-length human MEK7 (Homo sapiens, UniProt O14733); assay: ADP-Glo kinase activity assay, MEK7 with JNK1 substrate; assay type: biochemical; details: for IC50: 30 min preincubation; for in vitro activity against MAP2K7, in words: ADP-Glo assay, comparison within the series
T3 construct: recombinant active full-length human MEK7 (Carna Biosciences); purchased Carna Biosciences
T3 sequence (O14733 1-419): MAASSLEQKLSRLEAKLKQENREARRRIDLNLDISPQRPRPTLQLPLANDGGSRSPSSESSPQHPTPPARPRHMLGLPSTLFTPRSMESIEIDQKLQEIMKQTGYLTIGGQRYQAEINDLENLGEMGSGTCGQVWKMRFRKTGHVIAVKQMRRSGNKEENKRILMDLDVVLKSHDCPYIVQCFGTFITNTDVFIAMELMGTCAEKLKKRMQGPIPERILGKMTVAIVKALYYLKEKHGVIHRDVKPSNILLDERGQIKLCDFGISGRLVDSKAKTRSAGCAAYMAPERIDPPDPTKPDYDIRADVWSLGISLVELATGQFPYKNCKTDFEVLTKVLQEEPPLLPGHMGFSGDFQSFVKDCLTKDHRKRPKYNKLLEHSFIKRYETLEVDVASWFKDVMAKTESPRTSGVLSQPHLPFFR
Method: Procedure for a 5 μL Kinase reaction using the ADP-Glo Kinase Assay Kit from Promega. Staurosporine was used as the positive control, and DMSO (vehicle) was employed as the negative control. Activity of recombinant active full-length human MEK7 (Carna Biosciences) was measured with recombinant full-length human substrate JNK1 (MAPK8). Using a Mantis, a mixture of MEK7 and JNK1 was dispensed into a 384-well low volume white Proxiplate. For each well, 4 ng of MEK7 and 600 ng of JNK1 in kinase buffer (CST) were used, accounting for 1 μL of this mixture per well. Inhibitor was prepared in a DMSO solution (40 mM). A dose-response dilution was performed in a 384-well Echo transfer plate. Using an Echo Access, 10 nL of each solution was dispensed into the same 384-well low volume white Proxiplate as above. This mixture was allowed to incubate for 30 minutes at room temperature. Using a Mantis, 1 uL of an 8 μM ATP solution was added to each well, and the plate was allowed to incubate for another 1 hour at room temperature. Using the Mantis again, 4 μL of ADP Glo Reagent was dispensed into each well, and the plate was allowed to incubate for 45 min at room temperature. Finally, 9 μL of Kinase Detection Reagent was added manually to each well, and the plate was allowed to incubate for 45 minutes at room temperature. Luminescence was read on a Synergy Neo2 Plate Reader with filter cubes 3 and 114. Integration time was set to 0.20 seconds, gain set to 160, and read height set at 6 mm. All experiments were performed in triplicate on the plate, and at least in one separate technical duplicate was performed.
MEK4 selectivity was performed in the same manner with activated MEK4 (Carna Biosciences). Here, p-38α was employed as the kinase substrate in lieu of JNK1 due to the availability of reagents. […] To probe the ATP-competitive nature of 25, this compound was subjected to a similar assay forgoing the 30 minute incubation time described above (STAR Protocols 2021, 2, 100717). The results are tabulated below in compound characterization. Potency determined by duplicate of triplicates corresponded to a IC50 value, which is in line with the ratio difference observed among other covalent inhibitors (for examples, see Cell Chem. Biol. 2020, 27, 1285).

[5] = molecular target: T4, MEK3 (Homo sapiens, UniProt P46734); assay: Additional selectivity assay, MEK3 (FIG. 9); assay type: binding
T4 sequence (P46734 1-347): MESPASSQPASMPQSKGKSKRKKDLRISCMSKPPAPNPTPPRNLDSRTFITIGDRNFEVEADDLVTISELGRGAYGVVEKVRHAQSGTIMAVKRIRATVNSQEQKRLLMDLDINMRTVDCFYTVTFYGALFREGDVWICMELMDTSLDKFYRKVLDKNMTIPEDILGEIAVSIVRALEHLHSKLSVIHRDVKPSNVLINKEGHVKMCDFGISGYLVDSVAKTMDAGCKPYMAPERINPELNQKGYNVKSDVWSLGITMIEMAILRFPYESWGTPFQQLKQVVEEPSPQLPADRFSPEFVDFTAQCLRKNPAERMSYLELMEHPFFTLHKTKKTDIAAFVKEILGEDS

[6] = overall value of two experiments, read-out: MEK7 IC50
[7] = MEK7 IC50, first experiment (IC50±SEM, n=3), first value in brackets
[8] = MEK7 IC50, second experiment (IC50±SEM, n=3), second value in brackets

Row | activity/binding at MEK6 [1] | PAMPA cell permeability [2] | activity/binding at MEK5 [3] | IC50 [4, 6] | IC50 ([4]; read-out: MEK7 IC50) | IC50 [4, 7] | IC50 [4, 8] | activity/binding at MEK3 [5] | SMILES | in vitro activity against MAP2K7, in words [4] | IC50 ([4]; first value in brackets) | IC50 ([4]; read-out: MEK7 IC50, second experiment (IC50±SEM, n=3), second value in brackets)
1 | inactive | highly membrane permeable | inactive | 60 nM | 60 nM | 87 ± 41 nM | 34 ± 42 nM | inactive | CNc1cc(Oc2cccc(NC(=O)CCl)c2)ncn1 [Compound 8, 2-chloro-N-(3-((6-(methylamino)pyrimidin-4-yl)oxy)phenyl)acetamide] |  |  | 
2 | inactive |  | inactive |  |  | 230 ± 190 nM | 610 ± 400 nM | inactive | C=CC(=O)Nc1cccc(Oc2cc(NC)ncn2)c1 [Compound 9, N-(3-((6-(methylamino)pyrimidin-4-yl)oxy)phenyl) acrylamide] | less active than compound 8 |  | 
3 |  |  |  | 74 nM |  | 110 nM |  |  | O=C(CCl)Nc1cccc(Oc2cc(NCc3cc(F)cc(F)c3)ncn2)c1 [Compound 26, 2-chloro-N-(3-((6-((3,5-difluorobenzyl)amino)pyrimidin-4-yl)oxy)phenyl)acetamide] |  |  | 

Row | SMILES | activity/binding at MEK6 [1] | PAMPA cell permeability [2] | activity/binding at MEK5 [3] | IC50 [4, 6] | IC50 ([4]; read-out: MEK7 IC50) | IC50 [4, 7] | IC50 [4, 8] | activity/binding at MEK3 [5] | in vitro activity against MAP2K7, in words [4] | IC50 ([4]; first value in brackets) | IC50 ([4]; read-out: MEK7 IC50, second experiment (IC50±SEM, n=3), second value in brackets)
4 | CNc1cc(Oc2cccc(NC(=O)CF)c2)ncn1 [Compound 12, 2-fluoro-N-(3-((6-(methylamino)pyrimidin-4-yl)oxy)phenyl)acetamide] |  |  |  | 7800 nM |  |  |  |  | attenuated activity | 7700 ± 20000 nM | 7800 ± 5000 nM
